Assay results reported in patent US20200393447A1, “BIOSENSORS FOR MEASURING CELL SIGNALING IN STRESSED AND HEALTHY CELLS” (MONTANA MOLECULAR LLC, priority 2017, published 2020).

Tests used:
Type in all cases: cell-based
HEK293T cells [1] = experiment: RT-PCR of spliced/unspliced sensor mRNA (XBP1 intron splicing) after thapsigargin
Source text: A second nucleic acid construct (SEQ ID NO: 6) was constructed and tested. This nucleic acid construct is a red fluorescent protein (RFP) with a nuclear localization sequence, placed upstream of the XBP1 intron sequence. A T2A peptide encoding sequence is placed after the RFP sequence. This is followed by a partial sequence from the endogenous XBP1 gene that encodes a region of the protein important for regulating its stability. This partial XBP1 sequence is fused to the mNeonGreen coding sequence. Upon stress activation the XBP1 intron sequence is removed, this removes a stop codon, shifts the reading frame, and allows for translation of the XBP1-mNeonGreen fusion construct. This construct was transfected into HEK293T cells, which were then treated with 1 μM thapsigargin or DMSO vehicle control to induce ER stress. Isolated mRNA from the treated cells was then analyzed for intron splicing using RT-PCR (see van Schadewijk et al., 2012).
(§1) HEK293T cells were transduced with 25 μL of the nucleic acid construct of SEQ ID NO: 6. The construct was transduced into 48,000 HEK293T cell in FluoroBrite media and the cells were incubated at 37° C. and 5% CO2 for 16 hours. A final concentration of 1 μM thapsigargin was added to the cells. For RT-PCR analysis a total of 2 μg of total RNA was isolated form 6 wells of cells grown on 96-well Greiner plates coated in poly-D-lysine. […] PCR products were then analyzed on a 2% agarose gel. […] All images were obtained using a Zeiss Axiovert fluorescence microscope with standard RFP and GFP excitation and emission filter sets. […] The media was supplemented with 25 mM HEPES and the cells were incubated in the BioTek Synergy MX plate reader at 37° C. for 24 hours. Green fluorescence was monitored using excitation and emission wavelengths of 485 nm and 528 nm respectively, while red fluorescence was monitored using 558 nm/603 nm excitation and emission wavelengths. […] The percentage of change in green, red, and green/red ratio fluorescence was then calculated.

HEK293T cells [2] = experiment: Multiplex Ca2+ biosensor (SEQ ID NO: 4) in cells stressed with thapsigargin, carbachol stimulation
Experimental: In order to analyze the calcium response of cells exposed to an ER-stress inducing molecule, HEK293T cells transfected with the nucleic acid construct described in FIG. 1 were exposed to thapsigargin to induce ER stress. Thapsigargin is an inhibitor of the sarcoplasmic/endoplasmic reticulum Ca^2+ ATPase that inhibits the autophagic process and induces ER stress. The calcium signaling properties of the thapsigargin-treated cells was measured as described below. HEK293T cells were transfected with SEQ ID NO: 4 as follows. 27,000 cells per well in 100 μL of EMEM media were plated onto Greiner 96-well plates coated with poly-D lysine. The cells were incubated for 24 hours at 37° C. and 5% CO2. 100 ng of plasmid DNA expressing SEQ ID NO: 4 and 10 ng of plasmid expressing human muscarinic receptor 1 were then transfected using FUGENE as follows. 100 ng of DNA expressing SEQ ID NO: 4 and 10 ng of DNA expressing human muscarinic receptor 1 were combined with 0.4 μL of FUGENE and brought to a final volume of 50 μL using OPTIMEM serum free media and incubated for 20 mins at 25° C. then added to the cells. After 16 hours the cells were treated with a final concentration of 1 μM thapsigargin for 5 hours to induce ER stress. The cells were then washed 5× with 100 μL DPBS and 150 μL of DPBS was added to the wells. The cells were imaged using a Zeiss Axiovert fluorescence microscope using standard Green Fluorescent Protein (GFP) and Red Fluorescent Protein (RFP) excitation and emission filters. Images were obtained in both the red and green channels every 2 seconds for 100 seconds. A final concentration of 50 μM carbachol was added to the wells to stimulate Gq signaling after 20 seconds, releasing intracellular Ca^2+ stores for detection by the biosensor. The images were analyzed as follows. Cells were identified as either stressed or unstressed based on their green fluorescence intensity. The Ca^2+ signaling response upon Gq stimulation was monitored in the red fluorescence channel.

HEK293T cells [3] = experiment: Two-color stress sensor fluorescence monitored over 24 hours after thapsigargin; conditions: 1 μM vs DMSO, 24 hours monitoring
Experimental: as §1, with “poly-D-lysine. RNA was isolated using the Zymo Quick RNA microprep kit according to the manufacturer's instructions. mRNA was converted to cDNA by reverse transcription using M-MLV reverse transcriptase from Promega and an oligo dT primer according to the manufacturer's instructions.” for “poly-D-lysine.”

[4] = tested on: iPSC-derived peripheral neurons; experiment: Two-color stress sensor (SEQ ID NO: 6): percentage of ER-stressed cells after chemotherapeutic treatment; conditions: 24 hours of incubation
Source text: The two-color biosensor described in Example 5 above (RFP-GFP stress sensor; SEQ ID NO: 6) may be used to calculate the percent of cells undergoing ER stress, and may be used as measurement technique to detect side effects induced by chemotherapeutics. In order to determine the percentage of cells in population experiencing ER-stress following exposure to a ER-stress-inducing compound, iPSC-derived peripheral neurons were transduced with the two-color stress sensor described in Example 5 above. The cells were treated with the chemotherapeutic vincristine at concentrations of 0.0001 μM, 0.01 μM, and 0.1 μM. Measurement of the red fluorescence was used to identify transduced cells and measurement of green fluorescence identifies stressed cells. Stressed and unstressed cells were counted to quantify the percentage of stressed cells in the population.
Peri.4U peripheral neurons from Ncardia were plated onto 96-well plates according to the manufacturer's instructions. Cells were incubated for 2 days at 37° C. and 5% CO2 and the media was changed every 24 hours, using Ncardia neuro supplement media. […] Those cells that expressed both the constitutively expressed red nuclear marker and the green, stress induced, nuclear fluorescence were considered stressed, while those only expressing the red marker were considered unstressed. […]

HEK293T cells [5] = experiment: Multiplex Ca2+ biosensor (SEQ ID NO: 4) in cells stressed by P23H rhodopsin mutant, carbachol stimulation; conditions: 50 μM, P23H rhodopsin mutant co-expressed
Experimental: In order to analyze the calcium response of cells expressing a mutant protein, HEK293T cells were transfected with both the nucleic acid construct described in FIG. 1 and a mutant rhodopsin protein (P23H). The P23H mutation in rhodopsin causes retinitis pigmentosa (Rivolta et al. 2002), an inherited form of blindness that develops gradually over the first decade of life.
The experiment in FIG. 4 was conducted the same as in FIG. 3 with the following modifications. 100 ng of a plasmid expressing the P23H rhodopsin mutation was co-transfected with the plasmid expressing SEQ ID NO: 4 and 10 ng of human muscarinic receptor 1. After 24 hours the cells were treated with 50 μM carbachol as described in Example 1 above, and the Ca^2+ signaling was monitored in the red fluorescence channel for cells identified as stressed or unstressed based on their green fluorescence intensity.

Question: Which “persistence of spliced sensor band (recovery from stress)” value (HEK293T cells [1]; 1 μM) does the source give for `C/C=C(/C)C(=O)O[C@H]1C(C)=C2[C@H]([C@@H]1OC(=O)CCCCCCC)[C@@](C)(OC(C)=O)C[C@H](OC(=O)CCC)[C@@]1(O)[C@H]2OC(=O)[C@@]1(C)O` [thapsigargin] here?
Answer: The value was “disappears after 24 hours”.

Question: And the “time of peak intensity of spliced sensor band post-treatment” value (HEK293T cells [1]; 1 μM)?
Answer: Its value is 2.5 h.

Question: What about the “appearance of spliced version of the sensor (lower band)” value (HEK293T cells [1]; 1 μM vs DMSO, 30 minutes, 2.5, 6 and 24 hours) of the same molecule?
Answer: The value was “appears only in the thapsigargin treated cells”.

Question: And the “mNeonGreen expression (ER stress marker)” value (HEK293T cells [2]; 1 μM for 5 hours)?
Answer: Its value is “the mNeonGreen protein due to the ER stress induced by the thapsigargin treatment”.

Question: What about the “green stress induced fluorescence over time” value (HEK293T cells [3]) of the same molecule?
Answer: Its value is “appears rapidly, then disappears by 24 hours”.

Question: Which results are given for `CC[C@]1(O)C[C@H]2CN(CCc3c([nH]c4ccccc34)[C@@](C(=O)OC)(c3cc4c(cc3OC)N(C=O)[C@H]3[C@@](O)(C(=O)OC)[C@H](OC(C)=O)[C@]5(CC)C=CCN6CC[C@]43[C@@H]65)C2)C1` [vincristine]?
Answer: percentage of stressed cells compared to control treatment ([4]; 0.01 μM, p<0.00011): statistically significant percentages of stressed cells; percentage of stressed cells compared to control treatment ([4]; 0.1 μM, p<2.3e−05): statistically significant percentages of stressed cells

Question: What does the source list for `C[N+](C)(C)CCOC(N)=O` [carbachol]?
Answer: Ca2+ response in ER-stressed cells compared to surrounding healthy cells (HEK293T cells [2]; 50 μM, stressed (mNeonGreen) vs unstressed cell): blunted, smaller amplitude response; red fluorescence of Ca2+ biosensor after treatment (HEK293T cells [2]; 50 μM, thapsigargin-treated cells): visible increase in red fluorescence; release of intracellular Ca2+ stores, stressed vs unstressed cells (HEK293T cells [5]): blunted in the stressed cells compared to the unstressed cells
